Test results published in patent EP2193713A1, “Method for fighting animal pests without damaging pollinating insects” (Bayer CropScience AG, priority 2008, dated 2010).

Test system: Apis mellifera
Test: Tunnel test / spray application / bees: foraging activity
Format: in vivo
Source text: Der Test wurde gemäß EPPO (European Plant Protection Organisation) Leitlinie 170 wie folgt durchgeführt:
Während einer Minute werden in einem abgegrenzten Bereich von 2 x 1 m^2 die Bienen gezählt, die auf Blüten absitzen. Tabelle 3 (siehe auch Figur 3)

## O=C1C=C(N(Cc2ccc(Cl)nc2)CC(F)F)CO1 [I-5, 4-{[(6-Chlorpyrid-3-yl)methyl](2,2-difluorethyl)amino}furan-2(5H)-on]
75 g a.s./ha, 0 DAA a (09:30 Uhr)
  Aktivität der Nahrungssuche, Zahl der Bienen / min / m^2: 25,5 Bienen / min / m^2
75 g a.s./ha, 0 DAA c (14:15 Uhr)
  Aktivität der Nahrungssuche, Zahl der Bienen / min / m^2: 41 Bienen / min / m^2
75 g a.s./ha, 0 DAA e (17:15 Uhr)
  Aktivität der Nahrungssuche, Zahl der Bienen / min / m^2: 42,7 Bienen / min / m^2
75 g a.s./ha, 1 DAA b (15:30 Uhr)
  Aktivität der Nahrungssuche, Zahl der Bienen / min / m^2: 18,8 Bienen / min / m^2
75 g a.s./ha, 2 DAA
  Aktivität der Nahrungssuche, Zahl der Bienen / min / m^2: 33,3 Bienen / min / m^2
75 g a.s./ha, 3 DAA
  Aktivität der Nahrungssuche, Zahl der Bienen / min / m^2: 40,3 Bienen / min / m^2
75 g a.s./ha, 6 DAA
  Aktivität der Nahrungssuche, Zahl der Bienen / min / m^2: 37,8 Bienen / min / m^2
75 g a.s./ha, -1 DAA (before application)
  Aktivität der Nahrungssuche, Zahl der Bienen / min / m^2: 27,3 Bienen / min / m^2
75 g a.s./ha, -2 DAA (before application)
  Aktivität der Nahrungssuche, Zahl der Bienen / min / m^2: 34,8 Bienen / min / m^2
75 g a.s./ha, -3 DAA (before application)
  Aktivität der Nahrungssuche, Zahl der Bienen / min / m^2: 26,5 Bienen / min / m^2
150 g a.s./ha, 0 DAA a (09:30 Uhr)
  Aktivität der Nahrungssuche, Zahl der Bienen / min / m^2: 28,3 Bienen / min / m^2
150 g a.s./ha, 0 DAA c (14:15 Uhr)
  Aktivität der Nahrungssuche, Zahl der Bienen / min / m^2: 40,2 Bienen / min / m^2
150 g a.s./ha, 0 DAA e (17:15 Uhr)
  Aktivität der Nahrungssuche, Zahl der Bienen / min / m^2: 39 Bienen / min / m^2
150 g a.s./ha, 1 DAA b (15:30 Uhr)
  Aktivität der Nahrungssuche, Zahl der Bienen / min / m^2: 19,2 Bienen / min / m^2
150 g a.s./ha, 2 DAA
  Aktivität der Nahrungssuche, Zahl der Bienen / min / m^2: 35,7 Bienen / min / m^2
150 g a.s./ha, 3 DAA
  Aktivität der Nahrungssuche, Zahl der Bienen / min / m^2: 39,3 Bienen / min / m^2
150 g a.s./ha, 6 DAA
  Aktivität der Nahrungssuche, Zahl der Bienen / min / m^2: 37,5 Bienen / min / m^2
150 g a.s./ha, -1 DAA (before application)
  Aktivität der Nahrungssuche, Zahl der Bienen / min / m^2: 26,3 Bienen / min / m^2
150 g a.s./ha, -2 DAA (before application)
  Aktivität der Nahrungssuche, Zahl der Bienen / min / m^2: 34,2 Bienen / min / m^2
150 g a.s./ha, -3 DAA (before application)
  Aktivität der Nahrungssuche, Zahl der Bienen / min / m^2: 27 Bienen / min / m^2
Result in words, tunnel test, spray, I-5 75 und 150 g a.s./ha, Thiamethoxam 50 g a.s./ha directly after application
  Aktivität der Nahrungssuche: keine Änderung
